According to patent US20040132817A1, “Use of an histone deacetylase inhibitor for the treatment of diseases associated with an hpv infection” (priority 2001, published 2004):

Key:
HPV18 E7 = assay: Western blot of HPV18 E7 in HeLa cells; format: cell-based
Description: (C) Western blot analysis. 75 μg of total cellular protein was loaded on a 12% SDS-PAGE gel. After electrotransfer, the filters were consecutively incubated with HPV18 E7 and a monoclonal actin antibody.
(A) Western blot analysis. 75 μg of total cellular protein was loaded on a 12% SDS-PAGE gel. After electrotransfer, the filters were incubated with antibodies directed against HPV18 E7, p21^CIP1 (=p21), p27^KIP1 (=p27) and cdk2.
(§1) Cellular extracts were separated in 8-12% SDS PAGE gels and electrotransferred as described elsewhere (Finzer et al., Oncogene 19 (2000), 3235-3244; Soto et al., Oncogene 18 (1999), 3187-3198). The following antibodies were used: cyclin E (HE 12), cyclin D 1 (HD 11), cdk2 (M2), (D-12; Santa Cruz Biotechnology, Inc., Santa Cruz, USA), cdk4 (C-22), cdk6 (C-21), p27^KIP1 (C-19), (K25020), p45^SKP2 (N-19), HPV18-E7 (N-19) and E2F-1 (KH95) (Santa Cruz Biotechnology, Inc. Santa Cruz, USA), p21^CIP1 (C24420; Transduction Laboratories, Lexington, USA), pRB (NCL-RB; Novocastra, UK), p16^INK4 (15126E, Pharmingen, San Diego, USA) and HPV 16 E7 (ZYMED Lab. Inc., San Francisco, USA). Cyclin A was kindly provided by M. Pagano (Pagano et al., EMBO J. 11 (1992), 961-971). Equal protein transfer and loading was routinely checked by incubating the filters with a monoclonal actin antibody (ICN Biomedicals, Ohio, USA).

pRb = assay: Western blot of pRb in HPV16 E6-, E7-, E6/E7-immortalized keratinocytes; format: cell-based, human; details: 6 mM sodium butyrate, 16 hours
Description: Western blot analysis of cellular extracts obtained from E6-, E7-, and E6/E7-Immortalized cells which were separated in 8% (pRb) and 12% SDS-PAGE gels. After electrotransfer, the filters were incubated with pRb, E2F-1, cyclin E and actin antibodies. […] Due to quantitative differences of pRb and cyclin E levels in E7- and E6/E7-positive cells, the filters were exposed for different times.
HPV18-positive cervical Carcinoma cells (HeLa) were maintained in Dulbecco's modified Eagle's medium (DMEM), supplemented with 10% fetal calf serum (Gibco BRL, Rockville, USA), 1% penicillin and streptomycin (Sigma, Deisenhofen, Deutschland). Primary human keratinocytes, immortalized by E6-, E7- and E6/E7-open reading frames carrying amphotroptic retroviruses were cultivated in “Keratinocyte Medium Kit” (Sigma). Human foreskin keratinocytes transformed with HPV-16 E6/E7 either under the control of a human β-actin promoter (,1321″) or under the control of the authentic upstream regulatory region HPV (,1637″) were a kind gift of Dr. R. Schlegel (Georgetown University, Washington, USA) (Münger et al., J. Virol. 63 (1989), 4414-4423; Villa & Schlegel, Virology 181 (1991), 374-377). Cells were grown in 3 parts of keratinocyte-serum free medium (K-SFM, GIBCO, BRL) and 1 part of DMEM containing 10% fetal calf serum (GIBCO, BRL) and 0.75% gentamycin, 0.25% penicillin/streptomycin, respectively
as §1, with “Cyclin A was kindly provided by M. Pagano (Pagano et al., EMBO J. 11 (1992), 961-971). Equal protein transfer and loading was routinely checked by incubating the filters with a monoclonal actin antibody (ICN Biomedicals, Ohio, USA).” left out

SMILES: CCCC(=O)[O-].[Na+] [sodium butyrate]
- HPV18 E7 oncoprotein expression under growth arrest (HPV18 E7; 6 mM sodium butyrate, 16 hours): E7 oncogene-expression could be discerned
- HPV18 E7 oncoprotein, time course (HPV18 E7; NaB, six hours after application): significant reduction
- pRb state in E6-containing keratinocytes (pRb; HPV16 E6-immortalized keratinocytes): hypophosphorylated
- pRb level in E6/E7-immortalized keratinocytes (pRb; HPV16 E6/E7-immortalized keratinocytes): again revealed pRb degradation
- pRb level in E7-expressing keratinocytes (pRb; HPV16 E7-immortalized keratinocytes): completely disappeared
